The text below walks through data of patent US20240425517A1, “NOVEL COMPOUND FOR DEGRADATION OF TARGET PROTEIN OR POLYPEPTIDE BY POLYUBIQUITINATION” (PRAZER THERAPEUTICS INC., priority 2021, published 2024).

One assay addresses T1, p38 proteins (Mus musculus, UniProt P47811).
T1 construct: endogenous in cells; host or cells: RAW 264.7
The assay can be described thus: Degradation of p38 in Raw 264.7 macrophages (Western blot densitometry). Conditions: 10 μM, 24 hours. Format: cell-based. The method, then:
To confirm that the compounds (p38 degraders) of Preparation Examples I″′ to III″′ reduce the amount of phospho-p38 (p-p38) proteins, experiments were performed using Raw 264.7 macrophages. Since p38 MAPK alpha is activated through the process of phosphorylation of threonine 180 (Thr180) and tyrosine 182 (Tyr182) residues by MKK3, MKK6, and the like, which are upstream regulators, phosphorylation of these residues was generally detected using an antibody (3D7 rabbit monoclonal antibody from Cell Signaling, Inc.) that specifically recognizes phospho-p38 (p-p38) MAPK in which p38 MAPK alpha was activated.
Specifically, the RAW 264.7 cells were cultured in DMEM medium containing 10% fetal bovine serum (FBS), 1% penicillin, and streptomycin (100 U/mL), transferred to a 6-well plate, and after 24 hours, the p38 degraders were diluted in the DMEM culture medium and the cells were treated with 10 μM concentration thereof. After treatment, the cells were incubated in a CO2 incubator for 24 hours. Through protein immunoblotting (Western Blot), the degrading capacity of each compound against p38 and p-p38 proteins in cells was confirmed. After cell culture was completed according to the experimental conditions, the cells were collected and centrifuged at 1,800 rpm for 3 minutes. The cells in the precipitate were lysed with RIPA (25 mM Tris-HCl pH 7.6, 150 mM NaCl, 1% NP-40, 1% sodium deoxycholate, 0.1% SDS, 1× Protease Inhibitor Cocktail), 5× sample buffer was added, and then heated at 100° C. for 15 minutes. The prepared sample was electrophoresed with sodium dodecyl sulfate poly acrylamide gel electrophoresis (SDS-PAGE), and then the proteins in the gel were transferred to a PVDF membrane using Trans-Blot Turbo. The membrane was treated with a 5% bovine serum albumin (BSA) solution and blocked at room temperature for 2 hours, and then p-p38, p38, and R-actin antibodies were diluted in the 5% BSA solution to react with the membrane at 4° C. overnight. After washed with PBST (phosphate-based saline containing 0.5% Tween20) 5 times, horse radish peroxidase (HRP)-conjugated secondary antibodies were diluted in PBST to react at room temperature for 2 hours, and then washed again with a PBST solution 5 times. After enzyme-substrate reaction was carried out using a HRP substrate, a signal was measured with chemi-doc equipment, and the densitometry of bands corresponding to the p-p38 and p38 proteins detected in the Preparation Example Compounds was quantitatively analyzed. The case when the degrading capacity of each p38 degrader was reduced by less than 40% is indicated as +, the case when the degrading capacity was reduced by 40% to 70% (exclusive of 70) is indicated as ++, the case when the degrading capacity was reduced by 70% or more is indicated as +++ in Tables 24 to 26 below. As shown in the following Tables, it was confirmed that the compounds of Preparation Examples I″′ to III″′ according to the present invention have excellent degrading capacity.

The next assay has as its target T2, ubiquitin (Homo sapiens, UniProt P0CG47).
T2 construct: mixed with 1 mg/mL of ubiquitin
In words: Direct binding to ubiquitin: in vitro ubiquitination and intact protein analysis (UPLC-Q/TOF or MALDI-TOF). Conditions: 10 μM, ubiquitin 1 mg/mL, E1, E2, E3 (ITCH/AIP4), ATP, 37° C., 4 hours. As to the method: To confirm that the compounds represented by Formulae V to VIII of the present invention directly bind to ubiquitin, in vitro ubiquitination assay was performed, and then the compounds of Preparation Examples I′ to IV″′ (BRD4 degraders) bound to ubiquitin, a BRD4 inhibitor, and ubiquitin were detected using intact protein analysis. The intact protein analysis is a method capable of measuring a compound bound to a protein by mass spectrometry without protease pretreatment. Experiments were performed using ITCH/AIP4 proteins (manufacturer: R&D System), which are E3 ligases, in order to bind ubiquitin and BRD4 degraders in vitro.
Specifically, 10 μM of each degrader was mixed with 1 mg/mL of ubiquitin, 10× buffer, 5 nM of E1, 100 nM of E2, 14 nM of E3, and 1 mM of ATP to react in a 37° C. incubator for 4 hours. To the reacted samples, acetonitrile and formic acid were added for UPLC-Q/TOF or MALDI-TOF analysis, resulting in the final concentrations of 50% acetonitrile and 0.1% formic acid, respectively. For UPLC-Q/TOF, a Micromass Q-TOF micro Synapt High-definition mass spectrometer equipped with ESI was used to perform the mass spectrometry. […] The experimental results were analyzed using TOF/TOF™ Series Explorer™ software version 4.0.

Structures are written as SMILES.

T1 sequence (P47811 whole entry): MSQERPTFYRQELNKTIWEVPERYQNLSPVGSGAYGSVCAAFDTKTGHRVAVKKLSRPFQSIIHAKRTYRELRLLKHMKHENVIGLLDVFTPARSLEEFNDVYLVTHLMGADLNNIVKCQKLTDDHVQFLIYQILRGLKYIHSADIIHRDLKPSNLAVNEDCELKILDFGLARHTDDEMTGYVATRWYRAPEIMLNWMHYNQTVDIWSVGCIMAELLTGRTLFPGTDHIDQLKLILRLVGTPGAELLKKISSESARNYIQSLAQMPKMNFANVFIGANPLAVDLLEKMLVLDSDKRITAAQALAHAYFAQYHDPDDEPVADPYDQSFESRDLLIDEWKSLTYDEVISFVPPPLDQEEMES

Take `Cc1ccc(C(=O)NC2CC2)cc1-c1ccc(C(=O)c2ccc(OCCOC(=O)Nc3ccc(C#CCN)cc3)cc2)cc1.Cl` [1-1″′, 2-(4-(5′-(cyclopropylcarbamoyl)-2′-methyl-[1,1′-biphenyl]-4-carbonyl)phenoxy)ethyl (4-(3-aminoprop-1-yn-1-yl)phenyl)carbamate hydrochloride]: the “p38 degrading capacity (%)” value at p38 proteins is recorded as “+++ (the degrading capacity was reduced by 70% or more)”. With `Cc1ccc(C(=O)NC2CC2)cc1-c1ccc(C(=O)c2ccc(OCCOC(=O)Nc3ccc(C#CC(N)CO)cc3)cc2)cc1.Cl` (stereo not shown) [3-49″′, 2-(4-(5′-(cyclopropylcarbamoyl)-2′-methyl-[1,1′-biphenyl]-4-carbonyl)phenoxy)ethyl (4-(3-amino-4-hydroxybut-1-yn-1-yl)phenyl)carbamate hydrochloride], the “p38 degrading capacity (%)” value at p38 proteins is reported as “+++ (the degrading capacity was reduced by 70% or more)”. In the case of `Cc1ccc(C(=O)NC2CC2)cc1-c1ccc(C(=O)c2ccc(OCCOC(=O)NCCCNC(=O)c3ccc(C#CCN)o3)cc2)cc1` [4-166″′, 2-(4-(5′-(cyclopropylcarbamoyl)-2′-methyl-[1,1′-biphenyl]-4-carbonyl)phenoxy)ethyl (3-(5-(3-aminoprop-1-yn-1-yl)furan-2-carboxamido)propyl)carbamate trifluoroacetic acid], the “p38 degrading capacity (%)” value at p38 proteins is on record as “+++ (the degrading capacity was reduced by 70% or more)”. For the compound `COC(=O)c1ccc(NC(=O)CCCC(=O)OCCOc2ccc(C(=O)c3ccc(-c4cc(C(=O)NC5CC5)ccc4C)cc3)cc2)cc1C#CCN.Cl` [5-106″′, methyl 2-(3-aminoprop-1-yn-1-yl)-4-(5-(2-(4-(5′-(cyclopropylcarbamoyl)-2′-methyl-[1,1′-biphenyl]-4-carbonyl)phenoxy)ethoxy)-5-oxopentanamido)benzoate hydrochloride], the “p38 degrading capacity (%)” value on p38 proteins is reported as “+++ (the degrading capacity was reduced by 70% or more)”. As to `COC(=O)c1ccc(C#CCNC(=O)OCCOc2ccc(C(=O)c3ccc(-c4cc(C(=O)NC5CC5)ccc4C)cc3)cc2)cc1C#CCN.Cl` [5-116″′, methyl 2-(3-aminoprop-1-yn-1-yl)-4-(3-(((2-(4-(5′-(cyclopropylcarbamoyl)-2′-methyl-[1,1′-biphenyl]-4-carbonyl)phenoxy)ethoxy)carbonyl)amino)prop-1-yn-1-yl)benzoate hydrochloride], on p38 proteins, the “p38 degrading capacity (%)” value is given as “+++ (the degrading capacity was reduced by 70% or more)”.

With `COC(=O)c1ccc(C(=O)N2CCN(C(=O)OCCOc3ccc(C(=O)c4ccc(-c5cc(C(=O)NC6CC6)ccc5C)cc4)cc3)CC2)cc1C#CCN` [5-140″′, 2-(4-(5′-(cyclopropylcarbamoyl)-2′-methyl-[1,1′-biphenyl]-4-carbonyl)phenoxy)ethyl 4-(3-(3-aminoprop-1-yn-1-yl)-4-(methoxycarbonyl)benzoyl)piperazine-1-carboxylate trifluoroacetic acid], on p38 proteins, the “p38 degrading capacity (%)” value is “+++ (the degrading capacity was reduced by 70% or more)”.

As to `Cc1sc2c(c1C)C(c1ccc(Cl)cc1)=N[C@@H](CC(=O)OC(C)(C)C)c1nnc(C)n1-2` [JQ1], the “molecular weight peak of ubiquitin bound to the compound (intact protein analysis, FIGS. 3A-3J)” value on ubiquitin was “not detected”.
